Assay results as given in patent publication US10800791B2, “Triazole ACC inhibitors and uses thereof” (Gilead Apollo, LLC, priority 2015, dated 2020).
≈ marks a conversion by molar mass, not a printed value. Where two headings read alike, the source gives them in different places.

What was measured:
Botrtyis cinerea (Bc) = assay: Growth inhibition assay of fungal pathogens, Bc; format: cell-based; conditions: 48 h, Botrtyis cinerea, read-out: Concentration at 90% Inhibition Bc
How it was run: (§1)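 Spores from sub-cultured plates were diluted in 17% V8 liquid medium and exposed to compound from DMSO stocks at final concentrations of 50, 10 and 2 ppm or 2, 0.4 and 0.08 ppm. OD600 and visual ratings at 48 h were compared with the 2% DMSO control to give percent growth inhibition.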

[1] = tested on: Phytophthora capsici (Pc); assay: Growth inhibition assay of fungal pathogens, Pc; format: cell-based; conditions: 48 h, read-out: Concentration at 90% Inhibition Pc
How it was run: as §1

[2] = tested on: Fusarium virguliforme (Fv); assay: Growth inhibition assay of fungal pathogens, Fv; format: cell-based; conditions: 48 h, read-out: Concentration at 90% Inhibition Fv
How it was run: as §1

Rhizoctonia solani (Rs) = assay: Growth inhibition assay of fungal pathogens, Rs; format: cell-based; conditions: 48 h, mycelial plugs, read-out: Concentration at 90% Inhibition Rs
C. krusei = assay: Antifungal Activity Assay (broth microtiter MIC), C. krusei; format: cell-based, Candida krusei; conditions: Pichia kudriavzevii, ATCC6258, 48 h, ATCC 6258, 3 replicates, MIC recorded at 48 h, read-out: MIC, C. krusei ATCC 6258
How it was run: (§2)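 Colonies from 24 h Sabouraud dextrose agar plates (35° C) are suspended in RPMI 1640+MOPS and diluted to give 2.5×10^3 CFU/mL in the wells. Plates are set up per CLSI M27-A3. Visual MIC is recorded at 48 h.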

[3] = tested on: Fusarium moniliforme (Fm); assay: Growth inhibition assay of fungal pathogens, Fm; format: cell-based; conditions: Fusarium verticillioides, 48 h, Fusarium moniliforme, read-out: Concentration at 90% Inhibition Fm
How it was run: as §1

fungal (fACC2) = fungal (fACC2) (UniProt Q00955); conditions: read-out: fACC2 (in vitro ACC2 Inhibition Assay, IC50), ADP-Glo, 5 nM ACC2, 20 μM ATP, 20 μM acetyl-CoA
human (hACC2) = human (hACC2) (Homo sapiens, UniProt O00763); assay: In vitro ACC inhibition assay (ADP-Glo), hACC2; format: biochemical; conditions: 5 nM ACC2, 20 μM ATP, 20 μM acetyl-CoA
Description: The detailed procedure is as follows. […] 10 μL ADP glo reagent was added. […] 20 μL kinase detection reagent was added.

Septoria tritici (St) = assay: Growth inhibition assay of fungal pathogens, St; format: cell-based; conditions: Zymoseptoria tritici, 48 h, Septoria tritici, read-out: Concentration at 90% Inhibition St
How it was run: as §1

C. parapsilosis = assay: Antifungal Activity Assay (broth microtiter MIC), C. parapsilosis; format: cell-based, Candida parapsilosis; conditions: Lodderomyces parapsilosis, ATCC22019, 48 h, ATCC 22019, 3 replicates, MIC recorded at 48 h, read-out: MIC, C. parapsilosis ATCC 22019
How it was run: as §2

[4] = growth inhibition at 48 hours vs 2% DMSO control
[5] = growth inhibition vs 2% DMSO control at 48 hours

fungal (fACC2), sequence (Q00955 whole entry): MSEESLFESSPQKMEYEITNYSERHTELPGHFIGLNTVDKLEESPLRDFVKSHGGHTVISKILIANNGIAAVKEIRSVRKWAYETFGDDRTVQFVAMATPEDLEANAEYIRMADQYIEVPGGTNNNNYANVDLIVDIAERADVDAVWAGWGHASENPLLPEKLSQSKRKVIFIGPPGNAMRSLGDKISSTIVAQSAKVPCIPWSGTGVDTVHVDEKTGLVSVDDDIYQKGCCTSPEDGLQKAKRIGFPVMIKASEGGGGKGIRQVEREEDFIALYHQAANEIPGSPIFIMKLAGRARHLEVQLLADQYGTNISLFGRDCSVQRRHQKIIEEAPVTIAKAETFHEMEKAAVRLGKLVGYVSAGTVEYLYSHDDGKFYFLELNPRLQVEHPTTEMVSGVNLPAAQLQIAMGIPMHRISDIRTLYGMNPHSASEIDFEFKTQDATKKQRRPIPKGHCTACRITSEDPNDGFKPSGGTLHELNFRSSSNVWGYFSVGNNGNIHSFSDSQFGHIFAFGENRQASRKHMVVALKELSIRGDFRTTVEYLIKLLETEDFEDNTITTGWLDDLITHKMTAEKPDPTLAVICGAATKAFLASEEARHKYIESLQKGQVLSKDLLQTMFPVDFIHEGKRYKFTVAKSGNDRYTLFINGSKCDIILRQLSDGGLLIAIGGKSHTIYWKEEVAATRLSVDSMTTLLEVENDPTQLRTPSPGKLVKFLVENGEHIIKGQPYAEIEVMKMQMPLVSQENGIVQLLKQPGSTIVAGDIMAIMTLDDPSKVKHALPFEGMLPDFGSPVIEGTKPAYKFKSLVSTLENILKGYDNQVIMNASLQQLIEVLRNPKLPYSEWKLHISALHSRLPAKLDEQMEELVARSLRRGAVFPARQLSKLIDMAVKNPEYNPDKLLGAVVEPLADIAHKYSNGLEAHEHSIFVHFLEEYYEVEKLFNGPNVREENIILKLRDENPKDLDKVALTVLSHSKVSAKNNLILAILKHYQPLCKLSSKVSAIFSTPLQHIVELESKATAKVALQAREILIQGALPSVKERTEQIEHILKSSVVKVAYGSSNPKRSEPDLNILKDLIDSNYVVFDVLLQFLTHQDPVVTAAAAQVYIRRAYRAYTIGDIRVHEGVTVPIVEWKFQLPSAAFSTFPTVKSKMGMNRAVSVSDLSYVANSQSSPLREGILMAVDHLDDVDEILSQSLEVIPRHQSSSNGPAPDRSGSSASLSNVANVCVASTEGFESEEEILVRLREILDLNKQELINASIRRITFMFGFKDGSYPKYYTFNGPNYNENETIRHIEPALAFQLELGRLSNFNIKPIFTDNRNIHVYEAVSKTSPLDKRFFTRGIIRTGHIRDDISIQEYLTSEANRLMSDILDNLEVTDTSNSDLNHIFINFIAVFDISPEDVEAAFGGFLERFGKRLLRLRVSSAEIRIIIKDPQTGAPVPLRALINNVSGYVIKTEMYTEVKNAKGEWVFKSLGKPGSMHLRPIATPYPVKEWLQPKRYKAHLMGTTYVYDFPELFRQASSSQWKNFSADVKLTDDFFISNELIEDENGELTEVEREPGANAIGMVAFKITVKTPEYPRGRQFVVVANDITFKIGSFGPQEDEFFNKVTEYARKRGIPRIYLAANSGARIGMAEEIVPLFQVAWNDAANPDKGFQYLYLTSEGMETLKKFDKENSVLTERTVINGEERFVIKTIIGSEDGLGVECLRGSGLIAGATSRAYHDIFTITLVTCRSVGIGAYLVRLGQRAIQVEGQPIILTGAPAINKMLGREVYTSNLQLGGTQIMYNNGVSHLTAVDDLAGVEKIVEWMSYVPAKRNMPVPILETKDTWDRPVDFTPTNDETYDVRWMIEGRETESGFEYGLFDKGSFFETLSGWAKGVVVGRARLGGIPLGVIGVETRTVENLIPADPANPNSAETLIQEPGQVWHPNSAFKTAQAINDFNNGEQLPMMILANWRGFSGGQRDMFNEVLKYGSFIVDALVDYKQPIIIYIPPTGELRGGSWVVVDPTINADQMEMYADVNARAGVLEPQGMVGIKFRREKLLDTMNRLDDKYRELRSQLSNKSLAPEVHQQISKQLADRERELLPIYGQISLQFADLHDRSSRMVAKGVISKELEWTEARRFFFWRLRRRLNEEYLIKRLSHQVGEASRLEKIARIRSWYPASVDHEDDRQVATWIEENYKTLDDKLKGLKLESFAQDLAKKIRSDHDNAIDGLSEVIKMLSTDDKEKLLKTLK
human (hACC2), sequence (O00763 whole entry): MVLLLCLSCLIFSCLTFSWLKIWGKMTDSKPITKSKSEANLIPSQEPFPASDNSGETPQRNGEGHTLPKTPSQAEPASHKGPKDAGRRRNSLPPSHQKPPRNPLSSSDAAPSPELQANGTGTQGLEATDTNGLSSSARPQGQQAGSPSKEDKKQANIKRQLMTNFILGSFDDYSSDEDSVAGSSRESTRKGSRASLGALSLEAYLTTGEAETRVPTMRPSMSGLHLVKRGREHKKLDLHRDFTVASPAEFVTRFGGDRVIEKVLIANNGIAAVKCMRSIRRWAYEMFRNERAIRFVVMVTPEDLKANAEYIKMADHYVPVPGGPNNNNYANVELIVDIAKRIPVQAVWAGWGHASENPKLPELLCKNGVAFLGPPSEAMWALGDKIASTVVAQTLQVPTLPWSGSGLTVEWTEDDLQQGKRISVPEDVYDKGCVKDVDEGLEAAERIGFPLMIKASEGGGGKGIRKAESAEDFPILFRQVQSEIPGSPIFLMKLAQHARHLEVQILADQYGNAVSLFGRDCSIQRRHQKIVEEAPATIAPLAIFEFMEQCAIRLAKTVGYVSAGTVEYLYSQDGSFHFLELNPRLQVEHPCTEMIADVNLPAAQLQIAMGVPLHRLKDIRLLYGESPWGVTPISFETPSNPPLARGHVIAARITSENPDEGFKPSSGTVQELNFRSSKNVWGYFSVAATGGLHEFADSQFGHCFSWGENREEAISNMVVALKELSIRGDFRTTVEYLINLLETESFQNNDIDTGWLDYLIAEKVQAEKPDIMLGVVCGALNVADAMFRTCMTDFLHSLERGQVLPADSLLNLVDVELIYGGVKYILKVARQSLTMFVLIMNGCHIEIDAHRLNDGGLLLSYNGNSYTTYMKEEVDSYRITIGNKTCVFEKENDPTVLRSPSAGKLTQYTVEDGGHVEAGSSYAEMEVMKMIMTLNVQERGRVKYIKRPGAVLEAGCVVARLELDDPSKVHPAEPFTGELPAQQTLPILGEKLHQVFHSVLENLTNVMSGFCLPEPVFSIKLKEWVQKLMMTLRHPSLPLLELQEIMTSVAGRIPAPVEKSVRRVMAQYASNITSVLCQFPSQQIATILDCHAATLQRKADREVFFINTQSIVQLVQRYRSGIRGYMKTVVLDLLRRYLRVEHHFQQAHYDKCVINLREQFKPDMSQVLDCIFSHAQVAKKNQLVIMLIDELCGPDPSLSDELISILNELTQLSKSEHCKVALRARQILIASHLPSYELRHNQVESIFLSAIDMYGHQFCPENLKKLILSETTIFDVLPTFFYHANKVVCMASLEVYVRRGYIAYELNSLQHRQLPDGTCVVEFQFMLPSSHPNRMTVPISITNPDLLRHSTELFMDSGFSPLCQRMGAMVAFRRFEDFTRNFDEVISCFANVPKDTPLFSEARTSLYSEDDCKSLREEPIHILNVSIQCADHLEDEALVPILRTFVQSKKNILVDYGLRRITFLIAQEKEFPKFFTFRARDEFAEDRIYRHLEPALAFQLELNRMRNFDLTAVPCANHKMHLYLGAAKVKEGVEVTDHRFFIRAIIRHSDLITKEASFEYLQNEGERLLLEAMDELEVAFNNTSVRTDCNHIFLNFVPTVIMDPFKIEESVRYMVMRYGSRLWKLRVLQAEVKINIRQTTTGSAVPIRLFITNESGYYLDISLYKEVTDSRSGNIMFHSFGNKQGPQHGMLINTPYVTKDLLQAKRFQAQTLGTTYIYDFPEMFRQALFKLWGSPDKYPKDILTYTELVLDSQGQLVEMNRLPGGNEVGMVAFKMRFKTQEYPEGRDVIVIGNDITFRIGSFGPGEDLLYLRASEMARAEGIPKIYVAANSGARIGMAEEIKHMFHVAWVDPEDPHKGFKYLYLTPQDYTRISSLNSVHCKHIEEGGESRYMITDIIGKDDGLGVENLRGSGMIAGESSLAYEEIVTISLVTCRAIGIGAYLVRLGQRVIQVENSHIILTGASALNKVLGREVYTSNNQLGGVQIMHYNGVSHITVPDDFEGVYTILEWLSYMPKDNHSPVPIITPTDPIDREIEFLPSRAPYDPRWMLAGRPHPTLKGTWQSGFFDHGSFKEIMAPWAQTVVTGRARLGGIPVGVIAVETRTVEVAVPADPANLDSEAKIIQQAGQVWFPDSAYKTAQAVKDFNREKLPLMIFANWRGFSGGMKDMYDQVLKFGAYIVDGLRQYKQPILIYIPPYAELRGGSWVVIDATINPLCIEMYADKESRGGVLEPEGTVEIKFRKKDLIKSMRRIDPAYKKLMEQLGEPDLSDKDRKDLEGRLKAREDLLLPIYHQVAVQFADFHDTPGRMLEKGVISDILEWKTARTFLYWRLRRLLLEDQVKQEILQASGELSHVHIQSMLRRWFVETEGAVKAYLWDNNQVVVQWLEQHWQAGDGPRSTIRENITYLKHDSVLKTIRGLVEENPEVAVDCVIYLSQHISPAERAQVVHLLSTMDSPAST

Row | Compound | IC90 (Botrtyis cinerea (Bc); [4]) [µg/mL] | IC90 (Botrtyis cinerea (Bc); [5]) [µg/mL] | IC90 [1, 4] [µg/mL] | IC90 [1, 5] [µg/mL] | IC90 [2, 4] [µg/mL] | IC90 [2, 5] [µg/mL] | IC90 (Rhizoctonia solani (Rs); [4]) [µg/mL] | IC90 (Rhizoctonia solani (Rs); [5]) [µg/mL] | MIC (C. krusei; Table 3a) [µg/mL] | MIC (C. krusei; Table 3b (additional results)) [µg/mL] | IC90 [3, 4] [µg/mL] | IC90 [3, 5] [µg/mL] | IC50 (fungal (fACC2); Table 2a) [nM] | IC50 (fungal (fACC2); Table 2b, additional results) [nM] | IC50 (human (hACC2); Table 2a) [nM] | IC50 (human (hACC2); Table 2b, additional results) [nM] | IC90 (Septoria tritici (St); [4]) [µg/mL] | IC90 (Septoria tritici (St); [5]) [µg/mL] | MIC (C. parapsilosis; Table 3a) [µg/mL] | MIC (C. parapsilosis; Table 3b (additional results)) [µg/mL]
1 | COc1ccc(F)cc1[C@H](Cn1c(=O)n(C(C)(C)C(=O)N2CCCC2)c(=O)c2c(C)c(-n3nccn3)sc21)OC(C)C [Compound I-7, (R)-1-(2-(5-fluoro-2-methoxyphenyl)-2-isopropoxyethyl)-5-methyl-3-(2-methyl-1-oxo-1-(pyrrolidin-1-yl)propan-2-yl)-6-(2H-1,2,3-triazol-2-yl)thieno[2,3-d]pyrimidine-2,4(1H,3H)-dione] | 0.4 (≈ 0.668 µM) | 0.4 (≈ 0.668 µM) | > 50 | > 50 | 0.08 (≈ 0.134 µM) | 0.08 (≈ 0.134 µM) | 0.08 (≈ 0.134 µM) | 0.08 (≈ 0.134 µM) | 0.25 to 1 (≈ 0.418 to 1.67 µM) | 0.25 to 1 (≈ 0.418 to 1.67 µM) | 0.08 (≈ 0.134 µM) | 0.08 (≈ 0.134 µM) | 1 to 5 | 1 to 5 | 5 to 10 | 5 to 10 | 10 (≈ 16.7 µM) | > 50 | 1.1 to 2 (≈ 1.84 to 3.34 µM) | 1.01 to 2 (≈ 1.69 to 3.34 µM)
2 | COc1ccc(F)cc1[C@H](Cn1c(=O)n(C(C)(C)C(=O)NC2CCC2)c(=O)c2c(C)c(-n3nccn3)sc21)OC1CCOCC1 [Compound I-27, (R)—N-cyclobutyl-2-(1-(2-(5-fluoro-2-methoxyphenyl)-2-((tetrahydro-2H-pyran-4-yl)oxy)ethyl)-5-methyl-2,4-dioxo-6-(2H-1,2,3-triazol-2-yl)-1,4-dihydrothieno[2,3-d]pyrimidin-3(2H)-yl)-2-methylpropanamide] | 0.4 (≈ 0.624 µM) | 0.4 (≈ 0.624 µM) | 10 (≈ 15.6 µM) | > 50 | 0.4 (≈ 0.624 µM) | 0.4 (≈ 0.624 µM) | 0.08 (≈ 0.125 µM) | 0.08 (≈ 0.125 µM) | 0.06 to 0.24 (≈ 0.0936 to 0.375 µM) | 0.06 to 0.249 (≈ 0.0936 to 0.389 µM) | 0.08 (≈ 0.125 µM) | 0.08 (≈ 0.125 µM) | 1 to 5 | 1 to 5 | 5 to 10 | 5 to 10 | 2 (≈ 3.12 µM) | 10 (≈ 15.6 µM) | 0.25 to 1 (≈ 0.39 to 1.56 µM) | 0.25 to 1 (≈ 0.39 to 1.56 µM)
